The values that follow come from patent US20110305784A1, “Fractionated products obtained from gamboge resin, and medical uses of the same” (priority 2010, published 2011).

One data set is described as follows: in vitro. The settings on record: human. An excerpt:
(§1) The in vitro anti-cancer test was primarily used to detect the effect of a candidate drug on cancer cell proliferation. The working principle involved therein is the ability of viable cells to shift alamarBlue (AbD Serotec, UK) from its originally non-fluorescent oxidized state (non-fluorescent, blue) to a reduced form (fluorescent, red) having fluorescence via metabolic reaction. According to the fluorescent data result generated by the alamarBlue reagent thus obtained, the proliferation of the viable cells and cell activity can be quantified for detection.
(§2) In the in vitro anti-cancer tests, a candidate drug was tested at 5 different concentrations of 0.01, 0.1, 1, 10, and 100 μg/ml, and six human cancer cell lines and a normal human cell line were used (see Table 10).

For data set [1], the system named is Human breast adenocarcinoma cell MCF7. Briefly: cells. The settings on record: for IC50: MCF7, read-out: IC50 (50% inhibition concentration); for CC50: MCF7, read-out: LC50 (50% lethal concentration).
Description: as §1, §2

Data set [2] concerns Human colon adenocarcinoma cell HT-29. Description: cells. The settings on record: for IC50: HT-29, read-out: IC50 (50% inhibition concentration); for CC50: HT-29, read-out: LC50 (50% lethal concentration).
Description: as §1, §2

Data set [3] deals with Human hepatocellular carcinoma cell HepG2. Description: cells. As to conditions: for IC50: HepG2, read-out: IC50 (50% inhibition concentration); for CC50: HepG2, read-out: LC50 (50% lethal concentration).
Description: as §1, §2

Data set [4] relates to Human histocytic lymphoma cell U937. Description: cells. The settings on record: for IC50: U-937, read-out: IC50 (50% inhibition concentration); for CC50: U-937, read-out: LC50 (50% lethal concentration).
Description: as §1, §2

In data set [5] the test system is Human lung carcinoma cell A549. Briefly: cells. The settings on record: for IC50: A549, read-out: IC50 (50% inhibition concentration); for CC50: A549, read-out: LC50 (50% lethal concentration).
Description: as §1, §2

The subject of data set [6] is Human promyelocytic leukemia cell HL-60. Briefly: cells. The settings on record: for IC50: HL-60, read-out: IC50 (50% inhibition concentration); for CC50: HL-60, read-out: LC50 (50% lethal concentration).
Description: as §1, §2

Data set [7] relates to Human umbilical venal epithelial cell (HUVEC). Briefly: cells. The settings on record: Homo sapiens, HUVEC, read-out: IC50 (50% inhibition concentration).
Description: as §1, §2

The test system of data set [8] is male CD-1 (Crl.) mice. Briefly: In vivo analgesia test of formulation TSB-9-W (formalin, hind paw licking). As to conditions: morphine oral 30 mg/Kg. How it is done:
The formulation TSB-9 was milled to obtain a formulation TSB-9-W having a particle size of around 10 μm, and an in vivo analgesia test of the formulation TSB-9-W was performed by the MDS Pharma Services.
Briefly, male CD-1 (Crl.) mice were randomly divided into three groups (n=5 for each group) including an experimental group (i.e., TSB-9-W group) and two control groups (i.e., a vehicle normal control group and a morphine positive control group). The mice in the TSB-9-W group were orally administered with the formulation TSB-9-W at a dose of 100 mg/Kg, the mice in the vehicle normal control group were orally administered with 2% Tween 80 at a dosing volume of 10 mL/Kg, and the mice in the morphine positive control group were orally administered with morphine at a dose of 30 mg/Kg. One hour later, 0.02 mL of a 2% formalin solution was subplantarly injected into the hind paws of mice in each group, and the hind paw licking times for each mouse were counted at the time intervals of 0-5 minutes and 15-30 minutes after formalin injection. Inhibition rate (%) of hind paw licking in each group of mice was calculated using the following Equation (1):
wherein A=inhibition rate of hind paw licking (%), • B=the average value of the hind paw licking times in the vehicle normal control group of mice, and • C=the average value of the hind paw licking times in each group of mice.

Data set [9] deals with male CD-1 (Crl.) mice. Briefly: In vivo analgesia test of the fractionated products TSB-14A to TSB-14E (formalin, hind paw licking). Details: concentration or dose not given beside the values. As to conditions: morphine positive control, oral.
[10] abbreviates: 0-5 minutes after formalin injection.

Values after ≈ are worked out from the molar mass of the structure shown. Marks after values point to notes of the source that are not given here.

As to `CC(C)=CCC[C@@]1(C)C=Cc2c(O)c3c(c(C(O)C4OC4(C)C)c2O1)O[C@]12C(=C[C@@H]4CC1C(C)(C)OC2(C/C=C(/C)C(=O)O)C4=O)C3=O` (some centres unmarked) [Gh-3311, epiformoxanthone G], the CC50 in the data set “in vitro” turned out to be 13.9 µg/mL (≈ 21 µM); in [1], 14 µg/mL (≈ 21.2 µM); in [2] it was 38 µg/mL (≈ 57.5 µM); in data set [3], 25.6 µg/mL (≈ 38.7 µM); in data set [4], 5.4 µg/mL (≈ 8.17 µM); in data set [5], 21.2 µg/mL (≈ 32.1 µM). In data set [6], the CC50 worked out at 2.2 µg/mL (≈ 3.33 µM). For the same compound, the IC50 is 8 µg/mL (≈ 12.1 µM) in data set [1]; 7.9 µg/mL (≈ 12 µM) in [2]; 7.9 µg/mL (≈ 12 µM) in [3]; 1.9 µg/mL (≈ 2.88 µM) in data set [4]; 5 µg/mL (≈ 7.57 µM) in data set [5]; 1.4 µg/mL (≈ 2.12 µM) in [6]. In [7], the IC50 was found to be 4 µg/mL (≈ 6.05 µM).

In the case of `CC(C)=CCc1c2c(c(O)c3c1O[C@]14C(=C[C@@H]5CC1C(C)(C)OC4(C/C=C(\C)C(=O)O)C5=O)C3=O)C=CC(C)(C/C=C\C(C)(C)O)O2` (some centres unmarked) [Gh-3332, isoformoxanthone I], the CC50 was 3.3 µg/mL (≈ 5.12 µM) in the data set “in vitro”; 3.3 µg/mL (≈ 5.12 µM) in data set [1]; 73.8 µg/mL (≈ 114 µM) in [2]; 19.6 µg/mL (≈ 30.4 µM) in [3]; 1.4 µg/mL (≈ 2.17 µM) in data set [4]; 4.6 µg/mL (≈ 7.13 µM) in data set [5]. Moreover, the CC50 in data set [6] was found to be 30.5 µg/mL (≈ 47.3 µM). Further, the IC50 in [1] came to 0.87 µg/mL (≈ 1.35 µM); in data set [2] it was 0.85 µg/mL (≈ 1.32 µM); in [3] it was 6.7 µg/mL (≈ 10.4 µM); in data set [4], 0.23 µg/mL (≈ 0.357 µM); in data set [5], 1.3 µg/mL (≈ 2.02 µM); in data set [6], 11.8 µg/mL (≈ 18.3 µM). Also, the IC50 in [7] is 0.11 µg/mL (≈ 0.171 µM).

Turning to `CC(C)=CCC[C@@]1(C)C=Cc2c(O)c3c(c(CC4OC4(C)C)c2O1)O[C@]12C(=C[C@@H]4CC1C(C)(C)OC2(C/C=C(/C)C(=O)O)C4=O)C3=O` (some centres unmarked) [Gh-3351, epiformoxanthone E], the CC50 in the data set “in vitro” is 3.3 µg/mL (≈ 5.12 µM); in data set [1], 3.8 µg/mL (≈ 5.89 µM); in data set [2], 72.6 µg/mL (≈ 113 µM); in data set [3], 31.2 µg/mL (≈ 48.4 µM); in data set [4], 0.62 µg/mL (≈ 0.962 µM); in [5] it was 3.4 µg/mL (≈ 5.27 µM). Moreover, the CC50 in data set [6] was 22.1 µg/mL (≈ 34.3 µM). Moreover, the IC50 was determined as 0.99 µg/mL (≈ 1.54 µM) in data set [1]; 1.9 µg/mL (≈ 2.95 µM) in data set [2]; 2.9 µg/mL (≈ 4.5 µM) in [3]; 0.24 µg/mL (≈ 0.372 µM) in data set [4]; 0.77 µg/mL (≈ 1.19 µM) in data set [5]; 11.7 µg/mL (≈ 18.1 µM) in data set [6]. Besides, the IC50 in data set [7] is 0.11 µg/mL (≈ 0.171 µM).

As to `CC(C)=CCC[C@]1(C)C=Cc2c(O)c3c(c(CC4OC4(C)C)c2O1)O[C@]12C(=C[C@@H]4CC1C(C)(C)OC2(C/C=C(/C)C(=O)O)C4=O)C3=O` (some centres unmarked) [Gh-3352, formoxanthone E], the CC50 in the data set “in vitro” worked out at 0.85 µg/mL (≈ 1.32 µM); in [1] it was 1.8 µg/mL (≈ 2.79 µM); in [2], 0.68 µg/mL (≈ 1.05 µM); in [3], 2 µg/mL (≈ 3.1 µM); in data set [4] it was 0.26 µg/mL (≈ 0.403 µM); in data set [5], 0.99 µg/mL (≈ 1.54 µM). Further, the CC50 in data set [6] is 0.93 µg/mL (≈ 1.44 µM). Besides, the IC50 in data set [1] was found to be 0.075 µg/mL (≈ 0.116 µM); in data set [2], 0.18 µg/mL (≈ 0.279 µM); in data set [3], 0.16 µg/mL (≈ 0.248 µM); in [4] it was 0.11 µg/mL (≈ 0.171 µM); in data set [5], 0.18 µg/mL (≈ 0.279 µM); in [6], 0.26 µg/mL (≈ 0.403 µM). Besides, the IC50 in [7] turned out to be 0.084 µg/mL (≈ 0.13 µM).

As to `CC(C)=CCC[C@]1(C)C=Cc2c(O)c3c(c(C(O)C4OC4(C)C)c2O1)O[C@]12C(=C[C@@H]4CC1C(C)(C)OC2(C/C=C(/C)C(=O)O)C4=O)C3=O` (some centres unmarked) [Gh-3353, formoxanthone G], the CC50 was 8.4 µg/mL (≈ 12.7 µM) in “in vitro”; 9.6 µg/mL (≈ 14.5 µM) in data set [1]; 20.8 µg/mL (≈ 31.5 µM) in data set [2]; 35.5 µg/mL (≈ 53.7 µM) in [3]; 14.6 µg/mL (≈ 22.1 µM) in data set [4]; 8.2 µg/mL (≈ 12.4 µM) in [5]. In addition, the CC50 in data set [6] came out at 2.4 µg/mL (≈ 3.63 µM). Also, the IC50 turned out to be 2.4 µg/mL (≈ 3.63 µM) in [1]; 5 µg/mL (≈ 7.57 µM) in [2]; 5.3 µg/mL (≈ 8.02 µM) in data set [3]; 4.8 µg/mL (≈ 7.26 µM) in data set [4]; 2.6 µg/mL (≈ 3.93 µM) in data set [5]; 1.3 µg/mL (≈ 1.97 µM) in [6]. Moreover, the IC50 in data set [7] came out at 5.5 µg/mL (≈ 8.32 µM).

Take `CN1CC[C@]23c4c5ccc(O)c4O[C@H]2[C@@H](O)C=C[C@H]3[C@H]1C5` [Morphine, morphine]: the “Inhibition rate of hind paw licking (%)” value in the data set on male CD-1 (Crl.) mice [8] (setting [10]) is given as 100* %; with male CD-1 (Crl.) mice [8] (15-30 minutes after formalin injection) it was 100* %; with male CD-1 (Crl.) mice [9] (setting [10]), 62* %; in the data set on male CD-1 (Crl.) mice [9] (10-15 minutes after formalin injection) it was 89* %; in the data set on male CD-1 (Crl.) mice [9] (15-20 minutes after formalin injection), 81* %; with male CD-1 (Crl.) mice [9] (20-25 minutes after formalin injection), 68* %. In the data set on male CD-1 (Crl.) mice [9] (25-30 minutes after formalin injection), the “Inhibition rate of hind paw licking (%)” value came to 0%.
